Experimental data reported in patent publication US20240197655A1 (REPUBLIC OF KOREA(MASAN NATIONAL TUBERCULOSIS HOSPITAL), priority 2021, published 2024).
Converted amounts (≈) assume the structure as drawn. Counter-ions that a name gives are not always drawn.

How the values were obtained:
[1] = system: THP-1 cells
Experimental: (§1) THP-1 cells were treated with phorbol 12-myristate 13-acetate (PMA; Sigma-Aldrich, USA) at a final concentration of 50 nM for 40 hours. Infection with M. abscessus containing pTEC15 green fluorescence or luciferase was performed at 37° C. in the presence of 5% CO2 at a multiplicity of […] (MOI) of 2:1 for 3 hours. After extensive washing with PBS, the cells were incubated in a culture medium containing […] of gentamicin for 30 minutes and washed again with PBS. […] Macrophages were stained with SYTO 60 (Invitrogen, USA) dye at a final concentration of 5 μM at 37° C. in a 5% CO2 atmosphere for 30 minutes. On the day 4, luminescence was measured with a Synergy H1 microplate reader (Bio-Tek, USA). The fluorescence microscopic images of living cells were captured with a Lionheart™ FX automated microscope (BIO-Tek, USA). The Gen5™ 3.05 software object feature was available for identification of the cells in the imaging field.
(§2) The use of a double read assay results in dose-response curves for both inhibition for M. abscessus and cytotoxicity to THP-1 cells as determined in a same experiment. […] The cytotoxicity was determined using a SYTO 60 probe.

[2] = system: human colonic epithelial cells (HCT-8); assay: WST-8 cell viability and LDH cytotoxicity assay; type: cell-based; settings: HCT-8, 24 hours, FIG. 7
Experimental: (§3) THP-1 (ATCC TIB-202) and HCT-8 (ATCC CCL-244) cells were measured in regards to cell viability and cytotoxicity of CC using a WST-8 cell viability assay kit (MediFab, S. Korea) and a CytoTox 96® non-radioactive cytotoxicity assay kit (Promega, Madison, WI, USA), respectively. Differentiated THP-1 cells (1.0×10^5 cells/well) and HCT-8 cells (2.0×10^4 cells/well) were placed in 96-well plates and incubated at 37° C. for 24 hours. Here, CC was added to the cells at different concentrations. For cell viability assay, 10 μL of the reagent (10% medium volume) was added to each well, followed by incubation for 4 hours. The resulting color was measured at 450 nm. For LDH cytotoxicity assay, 50 μL of a reagent for LDH detection was added to each well, and incubation was performed in the dark for 30 minutes. The resulting color was measured at 490 nm. In this regard, the cells treated with 1% Triton™ X-100 were used as a positive control, and those treated with DMSO were all tested negative in both experiments.

[3] = system: THP-1 cells; assay: WST-8 cell viability and LDH cytotoxicity assay; type: cell-based, human; settings: THP-1, 24 hours, FIG. 7
Experimental: as §3

[4] = system: M. abscessus (ATCC 19997); assay: Resazurin (REMA) broth microdilution dose-response, aerobic culture; type: cell-based, Mycobacterium abscessus
Experimental: Three strains of M. abscessus (ATCC 19997), M. avium (ATCC 25291) and M. intracellulare (ATCC 13950) were cultured at 37° C. in Middlebrook 7H9 broth (BD, 27130) supplemented with 10% OADC (BD, 212240), 0.5% glycerol and 0.05% Tween-80.
The minimum inhibitory concentration (MIC) was determined according to the guideline by the CLSI (Clinical & Laboratory Standards Institute). The CLSI broth microdilution method recommended by MH was used with an inoculum having an OD of 0.001/ml in the exponential phase of growth.
Then, incubation was carried out at 37° C. for 3 hours, followed by adding 40 mL of 0.025% resazurin. After incubation overnight, the fluorescence of resorufin (metabolite resazurin) was measured with a Synergy H1 Hybrid Multi-Mode Reader (Bio-Tek, VT, USA). IC50 values were calculated from raw fluorescence data using Prism 5.0 software (GraphPad Inc., La Jolla, CA, USA). Experiments were performed in triplicates.

[5] = system: clarithromycin-resistant M. abscessus mutants (M. abscessus CLR-R); assay: REMA dose-response against clarithromycin-resistant mutants; type: cell-based, Mycobacterium abscessus; settings: mutant produced in presence of 100 mg/L CLR, FIG. 3
Experimental: (§4) Experiments were performed in triplicates.
It was also tested to determine whether CC inhibits the growth of the drug-resistant strains produced in the present invention in the presence of high concentration (100 mg/L) CLR used for therapy against M. abscessus. […] Accordingly, CC is considered as an active drug for the treatment of CLR-resistant M. abscessus.

[6] = system: M. abscessus (ATCC 19997) under anaerobic conditions; assay: Resazurin dose-response under anaerobic non-replicating culture; type: cell-based, Mycobacterium abscessus
Experimental: In order to determine the antibiotic ability against M. abscessus (ATCC 19997) under anaerobic conditions, a bacterial culture (5×10^6 bacteria/mL) was inoculated into 5 mL of 7H9 broth (BD, 271310) supplemented with 10% OADC. The bacterial culture was placed in an anaerobic jar (BD BBLIM GasPAK™ Jar; Franklin Lakes, NJ, USA). Here, a BD BBLIM GasPAK™ anaerobic indicator (methylene blue for monitoring oxygen depletion) was used. The bacteria were cultured in cation-adjusted Mueller-Hinton broth (MH; Sigma-Aldrich, 90922) for drug susceptibility testing.
as §4
A comparison was made between the growth rates under aerobic, anaerobic and restored aerobic conditions in a same culture medium.

[7] = system: M. abscessus in biofilm culture; assay: Biofilm assay (Calgary Biofilm Device, MBEC Assay); type: cell-based, Mycobacterium abscessus
Experimental: The first biofilm assay system was the Calgary Biofilm Device used by Bardouniotis et al. to evaluate the bactericidal activity or minimum biofilm eradication concentration (MBEC) of a biocidal active substance against Mycobacterium phlei. In the present invention, MBEC Assay® (Innovotech, Edmonton, Canada) for MBEC measurement was used. Biofilm formation was performed as follows. […] Then, the 96-well microliter plate was covered with a 96-peg lid and incubated for 4 days. After washing, the bacteria remaining on the biofilms were removed from the wells by ultrasonication in the medium. Finally, after incubation, the adherent bacteria remaining on the biofilms with or without antibiotics were quantified with resazurin.

[8] = system: M. abscessus (lux) in THP-1 cells; type: cell-based, Mycobacterium abscessus; settings: THP-1 infection, data not shown
Experimental: as §1, §2

[9] = system: M. abscessus (ATCC 19997); settings: known value used for selecting resistant mutants; cited from earlier work
[10] = system: biofilm-forming microbes; settings: Munoz-Egea et al.; cited from earlier work

SMILES	cytotoxicity to THP-1 cells [1]	effect on cell viability [2]	effect on cell viability [3]	general MIC [4] [µg]	IC50 ([4]; Mycobacteroides abscessus, ATCC19997, aerobic culture conditions, FIG. 4) [µg/mL]	resistance of produced mutant to CLR [5]	IC50 ([6]; Mycobacteroides abscessus, ATCC19997, anaerobic culture conditions, FIG. 4) [µg/mL]	shift of the IC50 value, anaerobic versus aerobic ([6]; anaerobic vs aerobic culture) [fold]	MBEC relative to general MIC ([7]; MBEC vs MIC)	IC50 ([7]; Mycobacteroides abscessus, biofilm culture, FIG. 4) [µg/mL]	MBEC for M. abscessus ([7]; biofilm)	effect on intracellular bacterial replication [8]	known MIC value [9] [mg/L]	MBEC relative to MIC [10]
CCN(CC)CCOc1ccc(C(=C(Cl)c2ccccc2)c2ccccc2)cc1 [CC, clomiphene citrate]	without cytotoxicity	no harm on the viability	no harm on the viability											
CC[C@H]1OC(=O)[C@H](C)[C@@H](O[C@H]2C[C@@](C)(OC)[C@@H](O)[C@H](C)O2)[C@H](C)[C@@H](O[C@@H]2O[C@H](C)C[C@H](N(C)C)[C@H]2O)[C@](C)(OC)C[C@@H](C)C(=O)[C@H](C)[C@@H](O)[C@]1(C)O [CLR, clarithromycin]				0.46	0.046 (≈ 0.0615 µM)	high drug resistance	0.0778 (≈ 0.104 µM)	2	2,000 fold	> 100	above 100 μg	prevented bacterial replication	0.1	100,000 fold
